Measured values as given in ChEMBL document CHEMBL1142795, “Synthesis, structure-activity relationships, and anxiolytic activity of 7-aryl-6,7-dihydroimidazoimidazole corticotropin-releasing factor 1 receptor antagonists” (Bioorg Med Chem Lett, 2005).

Columns and labels:
[1] = biological target: T1, Corticotropin-releasing factor receptor 1 (Homo sapiens, UniProt P34998); test: Displacement of [125I]-Tyr-o- CRF from human corticotropin releasing factor receptor 1 expressed in IMR-32 cells; format: cell-based
T1 sequence (P34998 whole entry): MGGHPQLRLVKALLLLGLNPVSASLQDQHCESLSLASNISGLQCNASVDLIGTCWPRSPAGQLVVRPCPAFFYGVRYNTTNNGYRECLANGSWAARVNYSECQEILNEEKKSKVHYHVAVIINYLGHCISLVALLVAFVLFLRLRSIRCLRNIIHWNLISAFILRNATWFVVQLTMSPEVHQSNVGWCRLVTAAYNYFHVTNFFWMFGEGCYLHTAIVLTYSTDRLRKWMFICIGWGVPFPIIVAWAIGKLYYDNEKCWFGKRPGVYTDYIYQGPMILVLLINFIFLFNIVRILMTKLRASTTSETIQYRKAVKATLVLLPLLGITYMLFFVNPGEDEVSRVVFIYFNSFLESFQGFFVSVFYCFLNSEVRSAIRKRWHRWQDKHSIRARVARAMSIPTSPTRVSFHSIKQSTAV

[2] = Bioavailability upon oral administration of 10 mg/kg of dose in a dosing vehicle of 10/10/80 cremaphor/DMSO/water; format: ADME, organism-based; details: eutheria, in vivo
[3] = Area under curve (0-24 hr) upon oral administration of 10 mg/kg of dose in a dosing vehicle of 10/10/80 cremaphor/DMSO/water; format: ADME, organism-based; set-up: time < 24 hr, dose 10 mg/kg, route oral; details: in vivo
[4] = Volume of distribution upon intravenous administration of 2 mg/kg of dose in a dosing vehicle of 10/10/80 cremaphor/DMSO/water; format: ADME, organism-based; set-up: dose 2 mg/kg, route intravenous; details: in vivo
[5] = Clearance upon intravenous administration of 2 mg/kg of dose in a dosing vehicle of 10/10/80 cremaphor/DMSO/water; format: ADME, organism-based; set-up: dose 2 mg/kg, route intravenous; details: in vivo
[6] = Brain to plasma (2 hours) concentration ratio upon intravenous administration of 2 mg/kg of dose in a dosing vehicle of 10/10/80 cremaphor/DMSO/water; format: ADME, organism-based; set-up: dose 2 mg/kg, route intravenous; details: brain and plasma, read-out: B/P
[7] = Maximum time to reach peak concentration upon oral administration of 10 mg/kg of dose in a dosing vehicle of 10/10/80 cremaphor/DMSO/water; format: ADME, organism-based; set-up: dose 10 mg/kg, route oral; details: in vivo
[8] = Maximum concentration upon oral administration of 10 mg/kg of dose in a dosing vehicle of 10/10/80 cremaphor/DMSO/water; format: ADME, organism-based; set-up: dose 10 mg/kg, route oral; details: in vivo

Row | Ki [1] [µM] | Compound | other results
1 | 0.22 | CCCN(CCC(F)(F)F)C(=O)c1c(CC)nc2n1CCN2c1c(C)cc(C)cc1C | 
2 | 3 | C=CCN(CC=C)C(=O)c1c(CC)nc2n1CCN2c1c(C)cc(C)cc1C | 
3 | 0.126 | CCCN(CC1CC1)C(=O)c1c(CC)nc2n1CCN2c1c(C)cc(C)cc1Br | 
4 | 0.024 | CCc1nc2n(c1C(=O)N(CC1CC1)CC(F)(F)F)CCN2c1c(C)cc(Cl)cc1Cl | 
5 | 0.74 | C=CCN(CCC)C(=O)c1c(CC)nc2n1CCN2c1c(C)cc(C)cc1C | 
6 | 0.61 | CCc1nc2n(c1C(=O)N(CC)CCC1CC1)CCN2c1c(C)cc(C)cc1C | 
7 | 0.068 | CCc1nc2n(c1C(=O)N(CC1CC1)CC1CC1)CCN2c1c(C)cc(C)cc1C | 
8 | 0.073 | CCc1nc2n(c1C(=O)N(CCC(F)(F)F)CC1CC1)CCN2c1c(C)cc(C)cc1C | 
9 | 4.1 | CCCN(Cc1ccccc1)C(=O)c1c(CC)nc2n1CCN2c1c(C)cc(C)cc1C | 
10 | 3 | CCCN(Cc1ccc(Cl)cc1)C(=O)c1c(CC)nc2n1CCN2c1c(C)cc(C)cc1C | 
11 | 0.061 | CCCN(CC(F)(F)F)C(=O)c1c(CC)nc2n1CCN2c1c(C)cc(C)cc1C | 
12 | > 10 | CCc1nc2n(c1C(=O)N1CCNCC1)CCN2c1c(C)cc(C)cc1C | 
13 | 0.77 | CCCN(CCC1CC1)C(=O)c1c(CC)nc2n1CCN2c1c(C)cc(C)cc1C | 
14 | 0.026 | CCc1nc2n(c1C(=O)N(CC1CC1)CC(F)(F)F)CCN2c1c(C)cc(C)cc1Br | 
15 | 0.66 | CCc1nc2n(c1C(=O)N(CCC(F)(F)F)Cc1ccccc1)CCN2c1c(C)cc(C)cc1C | 
16 | 0.22 | CCCN(CCc1ccccc1)C(=O)c1c(CC)nc2n1CCN2c1c(C)cc(C)cc1C | 
17 | 19 | CCCN(Cc1c(CC)nc2n1CCN2c1c(C)cc(C)cc1C)CC1CC1 | 
18 | 0.075 | CCCN(CC1CC1)C(=O)c1c(CC)nc2n1CCN2c1c(C)cc(Cl)cc1Cl | 
19 | > 10 | CCc1nc2n(c1C(=O)N1CCN(c3ccccc3F)CC1)CCN2c1c(C)cc(C)cc1C | 

Row | Ki [1] [µM] | Compound | other results
20 | 0.1 | CCCN(CCC)C(=O)c1c(CC)nc2n1CCN2c1c(C)cc(C)cc1C | 
21 | 0.094 | CCc1nc2n(c1C(=O)N(CC)CC1CC1)CCN2c1c(C)cc(C)cc1C | 
22 | > 10 | CCc1nc2n(c1C(=O)N(Cc1ccccc1)Cc1ccccc1)CCN2c1c(C)cc(C)cc1C | 
23 | > 10 | CCc1nc2n(c1C(=O)N(CC)CCN(C)C)CCN2c1c(C)cc(C)cc1C | 
24 | 0.27 | CCc1nc2n(c1C(=O)N(CCC(F)(F)F)Cc1ccc(Cl)cc1)CCN2c1c(C)cc(C)cc1C | 
25 | 0.041 | CCc1nc2n(c1C(=O)N(CC1CC1)CC(F)(F)F)CCN2c1c(C)cc(C)cc1C | 
26 | 1.56 | CCCN(CC1CC1)C(=O)c1c(CC)nc2n1CCN2c1ccc(C(C)C)cc1Br | 
27 | > 10 | CCc1nc2n(c1C(=O)N1CCN(C(C)=O)CC1)CCN2c1c(C)cc(C)cc1C | 
28 | 0.042 | CCCN(CC1CC1)C(=O)c1c(CC)nc2n1CCN2c1c(C)cc(C)cc1C | bioavailability [2]: 32%; AUC(0-t) at 24 h [3]: 1520 ng·h/mL; Vd [4]: 5.7 L/kg; clearance [5]: 35 mL/min/kg; Kp at 2 h [6]: 0.21; Tmax [7]: 4 h; Cmax [8]: 250 ng/mL
29 | 0.29 | CCCCN(CC)C(=O)c1c(CC)nc2n1CCN2c1c(C)cc(C)cc1C | 
30 | 0.27 | CCc1nc2n(c1C(=O)N(CC1CC1)CC(F)(F)F)CCN2c1ccc(C(C)C)cc1Br | 
31 | 0.063 | CCc1nc2n(c1C(=O)N(CC1CC1)CC(F)(F)C(F)(F)F)CCN2c1c(C)cc(C)cc1C | 
32 | 0.22 | CCCN(CC1CC1)C(=O)c1c(C)nc2n1CCN2c1c(C)cc(C)cc1C | 
33 | 0.041 | CCc1nc2n(c1C(=O)N(CC1CC1)CC(F)(F)F)CCN2c1c(C)cc(C)cc1Cl | 
34 | 6.6 | CCCN(Cc1c(C)nc2n1CCN2c1c(C)cc(C)cc1C)CC1CC1 | 
35 | 4.2 | CCCN(Cc1cccc(F)c1)C(=O)c1c(CC)nc2n1CCN2c1c(C)cc(C)cc1C | 
36 | > 10 | CCc1nc2n(c1C(=O)Nc1ccccc1)CCN2c1c(C)cc(C)cc1C | 
37 | 0.094 | CCCN(CC1CC1)C(=O)c1c(CC)nc2n1CCN2c1c(C)cc(C)cc1Cl | 
38 | 0.65 | CCc1nc2n(c1C(=O)N(CCC1CC1)CCC(F)(F)F)CCN2c1c(C)cc(C)cc1C | 
